Results reported in patent US9150519B2, “6-amino-pyrimidine-4-carboxamide derivatives and related compounds which bind to the sphingosine 1-phosphate (S1P) receptor for the treatment of multiple sclerosis” (MERCK SERONO SA, priority 2007, dated 2015).

Columns and labels:
S1P1 = S1P1 (Homo sapiens (Human), UniProt P21453); assay: 35S-GTPγS binding assay, S1P1 membranes; type: biochemical; details: membranes from CHO cells expressing S1P1; read-out: S1P1 GTPyS EC50
Protocol: Membranes were prepared from CHO cells expressing S1P1 or S1P3 for use in ligand and […] binding studies. Cells were suspended in 50 mM TRIS, pH 7.4, 2 mM EDTA, 250 mM Sucrose (buffer A) and 1× Complete protease inhibitor cocktail (Roche), and disrupted at 4° C. by nitrogen decompression using a cell disruption bomb (Parr Instrument). Following centrifugation at 1000 RPM for 10 min at 4° C., the supernatant was suspended in buffer A and centrifuged again at 19000 RPM for 60 min at 4° C. The pellet was then suspended in 10 mM HEPES, pH 7.4, 1 mM EDTA, 250 mM Sucrose (Buffer B), and 1× Complete EDTA-free protease inhibitor cocktail and homogenized using a potter. Membranes were flash frozen in liquid nitrogen and stored at −80° C. [33P]sphingosine 1-phosphate (3000 Ci/mmol; American Radiolabeled Chemicals, Inc.) was added to test compounds in DMSO. […] Binding was performed for 60 min at room temperature on a shaker and bound radioactivity was measured on a PerkinElmer 1450 MicroBeta counter. Specific binding was calculated by subtracting remaining radioactivity in the presence of 1000-fold excess of unlabeled S1P. Binding data were analyzed using the GraphPad Prism program.
(§1) The assay was initiated with the addition of 20 μl of 1.5 nM [35S]-GTPγS (1100 Ci/mmol; GE Healthcare) in assay buffer. After 60 min incubation at 30° C. on a shaker, plates were centrifuged for 10 min at 2000 RPM. Supernatant was discarded and membrane bound radioactivity was measured on a PerkinElmer 1450 MicroBeta counter. Triplicate samples were averaged and expressed as % response relative to SIP activation in absence of compound (n=2).

S1P3 = S1P3 (Homo sapiens (Human), UniProt Q99500); assay: 35S-GTPγS binding assay, S1P3 membranes; type: biochemical; details: membranes from CHO cells expressing S1P3; read-out: S1P3 GTPyS EC50
Protocol: Membranes were prepared from CHO cells expressing S1P1 or S1P3 for use in ligand and […] binding studies. Cells were suspended in 50 mM TRIS, pH 7.4, 2 mM EDTA, 250 mM Sucrose (buffer A) and 1× Complete protease inhibitor cocktail (Roche), and disrupted at 4° C. by nitrogen decompression using a cell disruption bomb (Parr Instrument). Following centrifugation at 1000 RPM for 10 min at 4° C., the supernatant was suspended in buffer A and centrifuged again at 19000 RPM for 60 min at 4° C. The pellet was then suspended in 10 mM HEPES, pH 7.4, 1 mM EDTA, 250 mM Sucrose (Buffer B), and 1× Complete EDTA-free protease inhibitor cocktail and homogenized using a potter. Membranes were flash frozen in liquid nitrogen and stored at −80° C. [33P]sphingosine 1-phosphate (3000 Ci/mmol; American Radiolabeled Chemicals, Inc.) was added to test compounds in DMSO. Membranes and WGA SPA beads (GE Healthcare) were added to give a final volume of 100 μl in 96-well plates with assay concentrations of […] [33P]sphingosine 1-phosphate (respectively for S1P1 or S1P3), 50 mM HEPES, pH 7.5, 5 mM MgCl2, 100 mM NaCl, 0.4% fatty acid-free BSA, 1-5 μg/well of proteins and 100 μg/well of WGA SPA beads. Binding was performed for 60 min at room temperature on a shaker and bound radioactivity was measured on a PerkinElmer 1450 MicroBeta counter. Specific binding was calculated by subtracting remaining radioactivity in the presence of 1000-fold excess of unlabeled S1P. Binding data were analyzed using the GraphPad Prism program.
as §1, with “Measurements of ^35S-GTPγS Binding: Membranes (1 to 10 μg protein) prepared as described above, were incubated in 96-well Scintiplates (PerkinElmer) with test compounds diluted in DMSO, in 180 μl of 20 mM HEPES, pH 7.4, 10 mM MgCl2, 2 μg/well Saponin, 0.2% fatty acid free BSA (Assay buffer), 140 mM NaCl and 1.7 μM GDP. The” for “The”

S1P1, sequence (P21453 whole entry, species assumed): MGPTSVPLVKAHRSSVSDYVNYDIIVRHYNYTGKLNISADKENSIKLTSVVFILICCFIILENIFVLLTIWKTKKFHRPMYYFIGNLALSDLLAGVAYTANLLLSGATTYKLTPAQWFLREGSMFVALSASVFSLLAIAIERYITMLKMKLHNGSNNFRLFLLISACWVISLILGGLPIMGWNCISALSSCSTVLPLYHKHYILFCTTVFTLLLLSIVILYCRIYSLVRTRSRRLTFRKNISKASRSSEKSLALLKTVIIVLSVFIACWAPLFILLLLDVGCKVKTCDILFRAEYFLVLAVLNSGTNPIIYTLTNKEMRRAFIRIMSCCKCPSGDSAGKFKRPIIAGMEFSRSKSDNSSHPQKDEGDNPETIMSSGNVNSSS
S1P3, sequence (Q99500 whole entry, species assumed): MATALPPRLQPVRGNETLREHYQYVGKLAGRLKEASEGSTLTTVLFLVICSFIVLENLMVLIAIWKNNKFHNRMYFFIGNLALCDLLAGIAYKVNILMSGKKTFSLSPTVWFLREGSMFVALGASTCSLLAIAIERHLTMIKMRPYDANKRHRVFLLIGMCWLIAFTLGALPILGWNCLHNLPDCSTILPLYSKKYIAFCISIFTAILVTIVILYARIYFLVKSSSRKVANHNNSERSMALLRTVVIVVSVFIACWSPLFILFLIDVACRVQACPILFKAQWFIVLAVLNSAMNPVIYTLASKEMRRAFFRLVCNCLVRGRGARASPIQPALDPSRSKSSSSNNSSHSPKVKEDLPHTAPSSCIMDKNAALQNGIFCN

EC50 (S1P1) | EC50 (S1P3) | Structure (SMILES)
132 nM | > 20000 nM | Cc1cc(O)ccc1NC(=O)c1cc(OC2CCCCC2)ncn1 [Example 1-34]
211 nM | 2330 nM | Cc1cc2[nH]ncc2cc1NC(=O)c1cc(N(C)C2CCCCC2)ncn1 [Example 1-39]

Continued, molecule first:

Structure (SMILES) | EC50 (S1P1) | EC50 (S1P3)
O=C(O)CCCS(=O)(=O)c1ccc(NC(=O)c2cc(N(CC3CC3)C3CCCCC3)ncn2)cc1 [Example 1-132] | 40 nM | 85 nM
O=C(Nc1ccnc2ccccc12)c1cc(N(CC2CC2)C2CCCCC2)ncn1 [Example 1-46] | 19 nM | 1160 nM
CCCN(CCC)c1cc(C(=O)Nc2ccc(S(N)(=O)=O)cc2C)ncn1 [Example 1-57] | 36 nM | > 20000 nM
